Values joined by “and” are separate entries in the source; they are usually repeats but may differ in a detail not shown here. Equal entries are not always repeated.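 Five concentrations, 48 hours, 96-well plates. The concentration for 50% growth inhibition is given as GI50. TGI: concentration producing complete growth inhibition.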
Tests used:
Assay in all cases: inhibition of tumour cell growth, NCI panel, 48 h
NCI-H460 lung = tested on: NCI-H460 lung
SW-620 colon = tested on: SW-620 colon
LOX IMVI melanoma = tested on: LOX IMVI melanoma
XF 498 CNS = tested on: XF 498 CNS
SNB-78 CNS = tested on: SNB-78 CNS
SF-268 CNS = tested on: SF-268 CNS
RXF 393 renal = tested on: RXF 393 renal
M19-MEL melanoma = tested on: M19-MEL melanoma
SK-MEL-5 melanoma = tested on: SK-MEL-5 melanoma
786-0 renal = tested on: 786-0 renal
DMS 114 small cell lung = tested on: DMS 114 small cell lung
TK-10 renal = tested on: TK-10 renal
HL-60(TB) leukemia = tested on: HL-60(TB) leukemia
K-562 leukemia = tested on: K-562 leukemia
SR leukemia = tested on: SR leukemia
NCI-H23 lung = tested on: NCI-H23 lung
CCRF-CEM leukemia = tested on: CCRF-CEM leukemia
LXFL 529 NSCLC = tested on: LXFL 529 NSCLC
HOP-18 NSCLC = tested on: HOP-18 NSCLC
A549 NSCLC = tested on: A549 NSCLC
DLD-1 colon = tested on: DLD-1 colon
NCI-H226 lung = tested on: NCI-H226 lung
OVCAR-3 ovarian = tested on: OVCAR-3 ovarian
NCI-H522 lung = tested on: NCI-H522 lung
SK-MEL-28 melanoma = tested on: SK-MEL-28 melanoma
HT29 colon = tested on: HT29 colon
HCT-116 colon = tested on: HCT-116 colon
HCT-15 colon = tested on: HCT-15 colon
SF-295 CNS = tested on: SF-295 CNS
UO-31 renal = tested on: UO-31 renal
A498 renal = tested on: A498 renal
UACC-257 melanoma = tested on: UACC-257 melanoma
SF-539 CNS = tested on: SF-539 CNS
CAKI-1 renal = tested on: CAKI-1 renal
OVCAR-5 ovarian = tested on: OVCAR-5 ovarian
SN12C renal = tested on: SN12C renal
KM20L2 colon = tested on: KM20L2 colon
DMS 273 small cell lung = tested on: DMS 273 small cell lung
M14 melanoma = tested on: M14 melanoma
MOLT-4 leukemia = tested on: MOLT-4 leukemia
ACHN renal = tested on: ACHN renal
SNB-19 CNS = tested on: SNB-19 CNS
U251 CNS = tested on: U251 CNS
EKVX NSCLC = tested on: EKVX NSCLC
SK-MEL-2 melanoma = tested on: SK-MEL-2 melanoma
COLO 205 colon = tested on: COLO 205 colon
IGROV1 ovarian = tested on: IGROV1 ovarian
OVCAR-8 ovarian = tested on: OVCAR-8 ovarian
OVCAR-4 ovarian = tested on: OVCAR-4 ovarian
MALME-3M melanoma = tested on: MALME-3M melanoma
KM12 colon = tested on: KM12 colon
RPMI-8226 leukemia = tested on: RPMI-8226 leukemia
HCC-2998 colon = tested on: HCC-2998 colon
SK-OV-3 ovarian = tested on: SK-OV-3 ovarian
HOP-92 NSCLC = tested on: HOP-92 NSCLC
HOP-62 NSCLC = tested on: HOP-62 NSCLC
UACC-62 melanoma = tested on: UACC-62 melanoma
SNB-75 CNS = tested on: SNB-75 CNS

COc1cc2c(c(OC)c1OC)-c1ccc(SC)c(=O)cc1C(CC(=O)Oc1ccc(F)cc1)C2 (configuration not stated)
GI50 (NCI-H460 lung): 0.346 µM
TGI (NCI-H460 lung): 1.83 µM and 1.14 µM
GI50 (SW-620 colon): 0.358 µM
TGI (SW-620 colon): 11.1 µM and > 100 µM
GI50 (LOX IMVI melanoma): 0.392 µM
TGI (LOX IMVI melanoma): 8.26 µM and 10.8 µM
GI50 (XF 498 CNS): 0.442 µM
TGI (XF 498 CNS): 7.03 µM and 5.13 µM
GI50 (SNB-78 CNS): 0.0891 µM
TGI (SNB-78 CNS): 75 µM and 73.6 µM
GI50 (SF-268 CNS): 0.461 µM
TGI (SF-268 CNS): 75 µM and 15 µM
GI50 (RXF 393 renal): 0.0426 µM
GI50 (M19-MEL melanoma): 0.338 µM
TGI (M19-MEL melanoma): 14.1 µM and 23.1 µM
GI50 (SK-MEL-5 melanoma): 0.293 µM
TGI (SK-MEL-5 melanoma): 1.1 µM and 3.38 µM
GI50 (786-0 renal): 0.325 µM
TGI (786-0 renal): 75 µM and > 100 µM
GI50 (DMS 114 small cell lung): 0.0325 µM
GI50 (TK-10 renal): 21.5 µM
TGI (TK-10 renal): 75 µM and > 100 µM
TGI (HL-60(TB) leukemia): 0.768 µM
GI50 (K-562 leukemia): 0.351 µM
TGI (K-562 leukemia): 75 µM and > 100 µM
GI50 (SR leukemia): 0.124 µM
TGI (SR leukemia): 3.14 µM and 24 µM
GI50 (NCI-H23 lung): 0.287 µM
TGI (NCI-H23 lung): 0.667 µM and 1.04 µM
GI50 (CCRF-CEM leukemia): 0.367 µM
TGI (CCRF-CEM leukemia): 27.5 µM and > 100 µM
GI50 (LXFL 529 NSCLC): 0.507 µM
GI50 (HOP-18 NSCLC): > 100 µM
TGI (HOP-18 NSCLC): 75 µM and > 100 µM
GI50 (A549 NSCLC): 0.391 µM
TGI (DLD-1 colon): 75 µM and 10.1 µM
GI50 (NCI-H226 lung): 0.201 µM
TGI (NCI-H226 lung): 0.612 µM and 0.677 µM
TGI (OVCAR-3 ovarian): 0.608 µM
GI50 (NCI-H522 lung): 0.217 µM
TGI (NCI-H522 lung): 0.31 µM and 0.61 µM
TGI (SK-MEL-28 melanoma): > 100 µM
GI50 (HT29 colon): 0.258 µM
TGI (HT29 colon): 0.392 µM and 0.675 µM
GI50 (HCT-116 colon): 0.323 µM
TGI (HCT-116 colon): 0.306 µM and 1.08 µM
GI50 (HCT-15 colon): 0.384 µM
TGI (HCT-15 colon): 0.989 µM and 2.86 µM
GI50 (SF-295 CNS): 0.286 µM
TGI (SF-295 CNS): 75 µM and > 100 µM
GI50 (UO-31 renal): 2.49 µM
TGI (UO-31 renal): 75 µM and > 100 µM
GI50 (A498 renal): 0.0432 µM
GI50 (UACC-257 melanoma): 0.264 µM
TGI (UACC-257 melanoma): 75 µM and > 100 µM
TGI (SF-539 CNS): 0.656 µM
GI50 (CAKI-1 renal): 1.9 µM
TGI (CAKI-1 renal): 10 µM and > 100 µM
GI50 (OVCAR-5 ovarian): 0.973 µM
TGI (OVCAR-5 ovarian): 75 µM and > 100 µM
TGI (SN12C renal): 20.2 µM and 7.79 µM
GI50 (KM20L2 colon): 0.189 µM
TGI (KM20L2 colon): 0.239 µM and 0.363 µM
GI50 (DMS 273 small cell lung): 0.262 µM
TGI (M14 melanoma): 14.4 µM
GI50 (MOLT-4 leukemia): 0.518 µM
TGI (MOLT-4 leukemia): 27.7 µM and > 100 µM
GI50 (ACHN renal): 0.587 µM
TGI (ACHN renal): 75 µM and > 100 µM
GI50 (SNB-19 CNS): 0.96 µM
TGI (SNB-19 CNS): 75 µM and > 100 µM
GI50 (U251 CNS): 0.41 µM
TGI (U251 CNS): 1.41 µM and 2.35 µM
GI50 (EKVX NSCLC): 0.981 µM
TGI (EKVX NSCLC): 75 µM and > 100 µM
GI50 (SK-MEL-2 melanoma): 0.449 µM
TGI (SK-MEL-2 melanoma): 0.91 µM and 4.17 µM
GI50 (COLO 205 colon): 0.307 µM
TGI (COLO 205 colon): 0.305 µM and 1.03 µM
GI50 (IGROV1 ovarian): 0.293 µM
TGI (IGROV1 ovarian): 75 µM and > 100 µM
GI50 (OVCAR-8 ovarian): 0.28 µM
GI50 (OVCAR-4 ovarian): 5.4 µM
TGI (OVCAR-4 ovarian): 75 µM and > 100 µM
TGI (MALME-3M melanoma): 75 µM and > 100 µM
TGI (KM12 colon): 2.37 µM
TGI (RPMI-8226 leukemia): 12.2 µM and 11 µM
GI50 (HCC-2998 colon): 0.161 µM
TGI (HCC-2998 colon): 0.325 µM and 0.46 µM
GI50 (SK-OV-3 ovarian): 0.04 µM
TGI (SK-OV-3 ovarian): 24.9 µM and 11.6 µM
GI50 (HOP-92 NSCLC): 1.91 µM
TGI (HOP-92 NSCLC): 75 µM and 97.7 µM
GI50 (HOP-62 NSCLC): 0.41 µM
TGI (HOP-62 NSCLC): 54.6 µM and 49.6 µM
GI50 (UACC-62 melanoma): 0.0509 µM
TGI (UACC-62 melanoma): 0.73 µM and 0.539 µM

COc1ccc(C2Oc3ccc(O)cc3[C@@H]2C)cc1OC (some centres not stated)
TGI (NCI-H460 lung): > 100 µM
TGI (SNB-75 CNS): > 100 µM
TGI (SW-620 colon): > 100 µM
TGI (LOX IMVI melanoma): > 100 µM
TGI (XF 498 CNS): > 100 µM
TGI (SNB-78 CNS): > 100 µM
TGI (SF-268 CNS): > 100 µM
TGI (RXF 393 renal): > 100 µM
TGI (M19-MEL melanoma): > 100 µM
TGI (SK-MEL-5 melanoma): > 100 µM
TGI (786-0 renal): > 100 µM
TGI (DMS 114 small cell lung): > 100 µM
TGI (TK-10 renal): > 100 µM
TGI (HL-60(TB) leukemia): > 100 µM
TGI (K-562 leukemia): > 100 µM
TGI (NCI-H23 lung): > 100 µM
TGI (CCRF-CEM leukemia): > 100 µM
TGI (LXFL 529 NSCLC): > 100 µM
TGI (HOP-18 NSCLC): > 100 µM
TGI (A549 NSCLC): > 100 µM
TGI (DLD-1 colon): > 100 µM
TGI (NCI-H226 lung): > 100 µM
TGI (OVCAR-3 ovarian): > 100 µM
TGI (NCI-H522 lung): > 100 µM
TGI (SK-MEL-28 melanoma): > 100 µM
TGI (HT29 colon): > 100 µM
TGI (HCT-116 colon): > 100 µM
TGI (HCT-15 colon): > 100 µM
TGI (SF-295 CNS): > 100 µM
TGI (UO-31 renal): > 100 µM
TGI (UACC-257 melanoma): > 100 µM
TGI (SF-539 CNS): > 100 µM
TGI (CAKI-1 renal): > 100 µM
TGI (OVCAR-5 ovarian): > 100 µM
TGI (KM20L2 colon): > 100 µM
TGI (DMS 273 small cell lung): > 100 µM
TGI (M14 melanoma): > 100 µM
TGI (MOLT-4 leukemia): > 100 µM
TGI (ACHN renal): > 100 µM
TGI (SNB-19 CNS): > 100 µM
TGI (U251 CNS): > 100 µM
TGI (EKVX NSCLC): > 100 µM
TGI (SK-MEL-2 melanoma): > 100 µM
TGI (COLO 205 colon): > 100 µM
TGI (IGROV1 ovarian): > 100 µM
TGI (OVCAR-8 ovarian): > 100 µM
TGI (OVCAR-4 ovarian): > 100 µM
TGI (MALME-3M melanoma): > 100 µM
TGI (KM12 colon): > 100 µM
TGI (RPMI-8226 leukemia): > 100 µM
TGI (HCC-2998 colon): > 100 µM
TGI (SK-OV-3 ovarian): > 100 µM
TGI (HOP-92 NSCLC): > 100 µM
TGI (HOP-62 NSCLC): > 100 µM
TGI (UACC-62 melanoma): > 100 µM

Reference: PubChem BioAssay (NCI)
